The target of this test is T1, 11β-hydroxysteroid dehydrogenase type 1 (11β-HSD1), mouse isoform (Mus musculus, UniProt P50172).
T1 construct: gene Hsd11b1; native 11β-HSD1 in differentiated C2C12 myotubes
In words: Cell-based cortisone to cortisol conversion in C2C12 myotubes, LCMS/MS.

T1 sequence (P50172 whole entry, canonical isoform): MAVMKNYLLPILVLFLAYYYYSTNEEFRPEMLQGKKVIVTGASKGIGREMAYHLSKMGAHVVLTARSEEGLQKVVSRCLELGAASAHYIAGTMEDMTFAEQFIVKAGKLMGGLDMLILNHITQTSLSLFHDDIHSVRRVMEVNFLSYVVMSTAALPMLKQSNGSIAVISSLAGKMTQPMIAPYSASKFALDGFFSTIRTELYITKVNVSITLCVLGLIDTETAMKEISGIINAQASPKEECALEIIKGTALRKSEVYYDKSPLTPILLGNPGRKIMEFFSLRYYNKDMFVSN

With CNX-010-49, inhibition was half-maximal at 64 nM (IC50).

For the origin of these results see article PMC4127523, “A novel 11β-hydroxysteroid dehydrogenase type1 inhibitor CNX-010-49 improves hyperglycemia, lipid profile and reduces body weight in diet induced obese C57B6/J mice with a potential to provide cardio protective benefits” (BMC Pharmacology & Toxicology, 2014).
